Reference: patent publication US10881642B2, “Autophagy enhancer and use thereof” (Industry-Academic Cooperation Foundation, Yonsei University, priority 2016, dated 2021)

System: mTOR
Assay: Western blot for mTOR inhibition (S6K1 phosphorylation)
Type: cell-based
Conditions: immunoblot
Experimental: Screening of autophagy enhancer. […] Luciferase assay. Firefly and Renilla luciferase assays were conducted using the Dual-Luciferase Reporter Assay System (Promega) according to the manufacturer's recommendation. In brief, cells were lysed in 1× lysis buffer and subjected to a single round of freezing/thawing. Firefly luciferase was determined after mixing 5 μl of lysate with 25 μl of Luciferase Assay Reagent II. Renilla luciferase was then determined after further addition of 20 ul of Stop&Glo Reagent. Cell culture and media and drugs treatment. […] Cytotoxicity was determined by the measurement of LDH release in cell culture media using the LDH kit (Roche), according to the protocol from the manufacturer. […] Imaging and image quantification. […] Formation of acidic vesicular organelles was quantitated by staining the cells with acridine orange (Invitrogen, 5 ug/ml, 10 min). […] Cells or tissues were solubilized in lysis buffer supplemented with protease and phosphatase inhibitors and protein concentration was measured by the Bradford method. Ten to 30 micrograms were loaded on 4-12% Bis-Tris gel (NUPAGE, Invitrogen) or 8-15% SDS-PAGE, transferred to PVDF membranes and analyzed by western blot using the ECL method (Pierce). […] Protein levels were quantified by using ImageJ software analysis. […]

SMILES: COc1oc(-c2ccccc2Cl)nc1S(=O)(=O)c1ccccc1 [MSL-7, 2-(2-chlorophenyl)-5-methoxy-4-(phenylsulfonyl) oxazole]
- mTOR inhibition: without cellular toxicity or mTOR inhibition

SMILES: CSc1oc(-c2ccccc2)nc1S(=O)(=O)c1ccc(F)cc1 [MSL]
- mTOR inhibition: does not involve mTOR inhibition
